# Columns and labels:
# [1] = target: Serine/threonine-protein kinase mTOR (Homo sapiens) (UniProt P42345); assay: Inhibition of mTOR (unknown origin) assessed as ratio of cytoplasmic to nuclear level of eukaryotic initiation factor 4E
# [2] = test system: SW480; assay: Cytotoxicity against human SW480 cells after 48 hrs by MTT assay; type: functional, cell-based; details: SW480, 48 h
# [3] = test system: MCF7; assay: Cytotoxicity against human MCF7 cells after 48 hrs by MTT assay; type: functional, cell-based; details: MCF7, 48 h
# [4] = test system: A549; assay: Cytotoxicity against human A549 cells after 48 hrs by MTT assay; type: functional, cell-based; details: A549, 48 h
# [5] = test system: HL-60; assay: Cytotoxicity against human HL60 cells after 48 hrs by MTT assay; type: functional, cell-based; details: HL-60, 48 h
# [6] = test system: SMMC-7721; assay: Cytotoxicity against human SMMC7721 cells after 48 hrs by MTT assay; type: functional, cell-based; details: SMMC-7721, 48 h
# [7] = test system: SW480; assay: Ratio of cisplatin IC50 to compound IC50 for human SW480 cells; type: functional
# [8] = test system: MCF7; assay: Ratio of cisplatin IC50 to compound IC50 for human MCF7 cells; type: functional
Ratio [1],Structure (SMILES),IC50 [2] [µM],IC50 [3] [µM],IC50 [4] [µM],IC50 [5] [µM],IC50 [6] [µM],Ratio IC50 [7],Ratio IC50 [8]
1.32,COc1ccc(C(=O)C[n+]2cn(Cc3c(-c4ccccc4)oc4ccccc34)c3ccccc32)cc1,> 40,23.8,9.12,0.61,16.6,,
,O=C(C[n+]1cnn(Cc2c(-c3ccccc3)oc3ccccc23)c1)c1ccc(O)cc1,> 40,> 40,> 40,> 40,> 40,,
,O=C(C[n+]1ccn(Cc2c(-c3ccccc3)oc3ccccc23)c1)c1ccc2ccccc2c1,3.48,3.68,14,2.06,9.42,,
,Brc1ccccc1C[n+]1ccn(Cc2c(-c3ccccc3)oc3ccccc23)c1,10.3,5.58,11.2,1.86,6.61,,
,O=C(C[n+]1cn(Cc2c(-c3ccccc3)oc3ccccc23)c2ccccc21)c1ccc(F)cc1,3.29,3.13,11.8,2.03,9.41,,
,c1ccc(-c2oc3ccccc3c2Cn2cncn2)cc1,> 40,> 40,> 40,> 40,> 40,,
1.12,COc1ccc(C(=O)C[n+]2ccn(Cc3c(-c4ccccc4)oc4ccccc34)c2)cc1,11.9,10.3,16.3,2.28,16.5,,
,O=C(C[n+]1ccn(Cc2c(-c3ccccc3)oc3ccccc23)c1)c1ccc(F)cc1,15.5,14.6,> 40,2.98,13.4,,
,O=C(C[n+]1cnn(Cc2c(-c3ccccc3)oc3ccccc23)c1)c1ccc(Br)cc1,14.6,10.4,14.6,9.71,10.8,,
1.11,O=C(C[n+]1cnn(Cc2c(-c3ccccc3)oc3ccccc23)c1)c1ccccc1,17.1,14.7,13.7,3.51,5.76,,
,CCc1n(Cc2c(-c3ccccc3)oc3ccccc23)cc[n+]1CC(=O)c1ccc(Br)cc1,3.58,2.89,12.8,0.72,6.07,,
,Brc1ccccc1C[n+]1cnn(Cc2c(-c3ccccc3)oc3ccccc23)c1,18.9,16.3,33.1,9,21.9,,
,CCc1n(Cc2c(-c3ccccc3)oc3ccccc23)cc[n+]1CC(=O)c1ccc(O)cc1,> 40,17.4,27.1,13.2,13.1,,
,c1ccc(C[n+]2cnn(Cc3c(-c4ccccc4)oc4ccccc34)c2)cc1,> 40,> 40,> 40,> 40,> 40,,
,O=C(C[n+]1cn(Cc2c(-c3ccccc3)oc3ccccc23)c2ccccc21)c1ccc(O)cc1,18.2,16.2,34,13,20.7,,
,CCc1n(Cc2c(-c3ccccc3)oc3ccccc23)cc[n+]1CC(=O)c1ccccc1,11.9,7.53,12.5,2.09,5.01,,
,O=C(C[n+]1ccn(Cc2c(-c3ccccc3)oc3ccccc23)c1)c1ccc(Br)cc1,3.36,3.65,13.8,1.57,17.8,,
,O=C(C[n+]1cn(Cc2c(-c3ccccc3)oc3ccccc23)c2ccccc21)c1ccccc1,3.44,3.92,12.2,1.97,8.46,,
,O=C(C[n+]1ccn(Cc2c(-c3ccccc3)oc3ccccc23)c1)c1ccc(O)cc1,> 40,> 40,> 40,> 40,> 40,,

Ratio [1],Structure (SMILES),IC50 [2] [µM],IC50 [3] [µM],IC50 [4] [µM],IC50 [5] [µM],IC50 [6] [µM],Ratio IC50 [7],Ratio IC50 [8]
,O=C(c1ccccc1)C(c1ccccc1)[n+]1cnn(Cc2c(-c3ccccc3)oc3ccccc23)c1 (stereo unspecified),20.9,20.7,16.8,15.9,16.1,,
,CCc1n(Cc2c(-c3ccccc3)oc3ccccc23)cc[n+]1CC(=O)c1ccc(F)cc1,11.3,5.03,14.6,0.99,8.13,,
1.54,c1ccc(C[n+]2cn(Cc3c(-c4ccccc4)oc4ccccc34)c3ccccc32)cc1,3.26,3.49,7.09,1.96,4.81,,
,c1ccc(-c2oc3ccccc3c2Cn2ccnc2)cc1,> 40,> 40,> 40,> 40,> 40,,
,O=C(C[n+]1cn(Cc2c(-c3ccccc3)oc3ccccc23)c2ccccc21)c1ccc2ccccc2c1,3.61,3.24,4.5,2.34,2.63,,
0.96,O=C(C[n+]1cnn(Cc2c(-c3ccccc3)oc3ccccc23)c1)c1ccc2ccccc2c1,2.89,3.11,2.06,2.33,1.86,,
1.52,Brc1ccccc1C[n+]1cn(Cc2c(-c3ccccc3)oc3ccccc23)c2ccccc21,5.56,4.78,3.34,0.64,2.1,,
,c1ccc(-c2oc3ccccc3c2Cn2cnc3ccccc32)cc1,> 40,> 40,> 40,> 40,> 40,,
,CCCC[n+]1cnn(Cc2c(-c3ccccc3)oc3ccccc23)c1,> 40,> 40,> 40,> 40,> 40,,
,CCc1nccn1Cc1c(-c2ccccc2)oc2ccccc12,> 40,> 40,> 40,> 40,> 40,,
1.07,CCc1n(Cc2c(-c3ccccc3)oc3ccccc23)cc[n+]1Cc1ccccc1Br.[Br-],0.47,0.51,0.55,0.08,0.52,40.1,40.8
1.55,CCc1n(Cc2c(-c3ccccc3)oc3ccccc23)cc[n+]1CC(=O)c1ccc2ccccc2c1,3.14,3.03,5.35,0.61,2.3,,
,O=C(C[n+]1cn(Cc2c(-c3ccccc3)oc3ccccc23)c2ccccc21)c1ccc(Br)cc1,4.37,4.08,5.25,2.11,2.94,,
,O=C(C[n+]1ccn(Cc2c(-c3ccccc3)oc3ccccc23)c1)c1ccccc1,15.5,15.5,> 40,2.49,9.83,,
1.59,CO[C@H]1C[C@@H]2CC[C@@H](C)[C@@](O)(O2)C(=O)C(=O)N2CCCC[C@H]2C(=O)O[C@H]([C@H](C)C[C@@H]2CC[C@@H](O)[C@H](OC)C2)CC(=O)[C@H](C)/C=C(\C)[C@@H](O)[C@@H](OC)C(=O)[C@H](C)C[C@H](C)/C=C/C=C/C=C/1C,,,,,,,
,CCc1n(Cc2c(-c3ccccc3)oc3ccccc23)cc[n+]1CC(=O)c1ccc(OC)cc1,5.69,3.17,12.9,0.58,11.8,,
,COc1ccc(C(=O)C[n+]2cnn(Cc3c(-c4ccccc4)oc4ccccc34)c2)cc1,17.2,14.9,13.7,3.22,5.76,,
,O=C(C[n+]1cnn(Cc2c(-c3ccccc3)oc3ccccc23)c1)c1ccc(F)cc1,16.8,16.4,15.1,9.67,9.21,,

# From ChEMBL document CHEMBL2406955, “Synthesis and cytotoxic activities of novel hybrid 2-phenyl-3-alkylbenzofuran and imidazole/triazole compounds” (Bioorg Med Chem Lett, 2013)
